Experimental data: patent publication US7291641B2, “Derivatives of heterocycles with 5 members, their preparation and their use as medicaments” (Societe de Conseils de Recherches et d'Applications …, priority 1999, dated 2007)
Structures can show the parent of a compound that is named as a salt.

Row | SMILES | melting point [°C]
1 | CC(C)(C)OC(=O)N[C@H](Cc1c[nH]c2ccccc12)c1nc(C(C)(C)C)c[nH]1 [Example 50, tert-butyl (1R)-1-(4-tert-butyl-1H-imidazol-2-yl)-2-(1H-indol-3-yl)-ethylcarbamate] | 104 to 106
2 | c1ccc(CNCc2nc(-c3ccc(-c4ccccc4)cc3)c[nH]2)cc1 (as salt: hydrochloride) [Example 168, N-benzyl(4-[1,1′-biphenyl]4-yl-1H-imidazol-2-yl)methanamine] | > 250
3 | CC(C)(C)OC(=O)NC(C)(C)c1nc(-c2ccccc2)c[nH]1 [Example 127, tert-butyl 1-methyl-1-(4-phenyl-1H-imidazol-2-yl)ethylcarbamate] | 130 to 132
4 | c1ccc(CNC(c2ccccc2)c2nc(-c3ccccc3)c[nH]2)cc1 (racemic) [Example 133, (R,S)-N-benzyl(phenyl)(4-phenyl-1H-imidazol-2-yl)methanamine] | 144 to 146
5 | CC(C)C[C@@H](NC(=O)OC(C)(C)C)c1nc(-c2ccccc2)c[nH]1 [Example 124, tert-butyl (1R)-3-methyl-1-(4-phenyl-1H-imidazol-2-yl)butylcarbamate] | 88 to 90
6 | CCC[C@@H](NC(=O)OC(C)(C)C)c1nc(-c2ccc(-c3ccccc3)cc2)c[nH]1 [Example 208, 4-(2-{(1R)-1-[(tert-butoxycarbonyl)amino]butyl}-1H-imidazol-4-yl)-1,1′-biphenyl] | 145.6
7 | Fc1ccc2c(CC(NCc3ccccc3)c3nc(-c4ccccc4)c[nH]3)c[nH]c2c1 (racemic) [Example 105, (R,S)-N-benzyl-2-(6-fluoro-1H-indol-3-yl)-1-(4-phenyl-1H-imidazol-2-yl)ethanamine] | 98 to 100
8 | CCCCNC(=O)NCCc1nc(-c2ccc(-c3ccccc3)cc2)c[nH]1 [Example 34] | 178
9 | CCCCS(=O)(=O)NCCc1nc(-c2ccc(-c3ccccc3)cc2)c[nH]1 [Example 33, N-[2-(4-[1,1′-biphenyl]-4-yl-1H-imidazol-2-yl)ethyl]-1-butanesulphonamide] | 168.5
10 | NC1(c2nc(-c3ccccc3)c[nH]2)CCCCC1 (as salt: hydrochloride) | 202 to 204

Now from value to compound:

Row | melting point [°C] | SMILES
11 | 217 to 218 | Fc1ccc(-c2c[nH]c([C@@H](CC3CCCCC3)NC3CCCCC3)n2)cc1 [Example 309, N-{(1R)-2-cyclohexyl-1-[4-(4-fluorophenyl)-1H-imidazol-2-yl]ethyl}cyclohexanamine]
12 | 176.5 | O=C(NCCc1nc(-c2ccc(-c3ccc(Br)cc3)cc2)c[nH]1)OCCCC(F)(F)F [Example 344, 4,4,4-trifluorobutyl 2-[4-(4′-bromo-1,1′-biphenyl-4-yl)-1H-imidazol-2-yl]ethylcarbamate]
13 | 119.2 | CC(C)(C)CCOC(=O)NCCc1nc(-c2ccc(N3CCCC3)cc2)c[nH]1 [Example 379, 3,3-dimethylbutyl 2-[4-(4-pyrrolidin-1-ylphenyl)-1H-imidazol-2-yl]ethylcarbamate]
14 | 214.1 | FC(F)(F)c1ccc(-c2c[nH]c([C@@H](NC3CCCCC3)C3CCCCC3)n2)cc1 (as salt: hydrochloride) [Example 296, N-((S)-cyclohexyl{4-[4-(trifluoromethyl)phenyl]-1H-imidazol-2-yl}methyl)cyclohexanamine]
15 | 158.7 | CC(C)COC(=O)NCCc1nc(-c2ccc(-c3ccc(Br)cc3)cc2)c[nH]1 [Example 338, isobutyl 2-[4-(4′-bromo-1,1′-biphenyl-4-yl)-1H-imidazol-2-yl]ethylcarbamate]
16 | 111.1 | CCCCOC(=O)NCCc1nc(-c2ccc(-c3cc(F)cc(F)c3)cc2)c[nH]1 [Example 457, butyl 2-[4-(3′,5′-difluoro-1,1′-biphenyl-4-yl)-1H-imidazol-2-yl]ethylcarbamate]
17 | 100.5 to 101.5 | CCCCOC(=O)NCCc1nc(-c2ccc(-c3cccc([N+](=O)[O-])c3)cc2)c[nH]1 [Example 459, butyl 2-[4-(3′-nitro-1,1′-biphenyl-4-yl)-1H-imidazol-2-yl]ethylcarbamate]
